{"source": "patent US7049321B2", "about": "“Methods and pharmaceutical compositions for treatment of central and peripheral nervous system disorders and compounds useful therefor” (Israel Institute for Biological Research, priority 2002, dated 2006)", "key": {"M5 receptor": {"target": "T1, M5 receptor (Homo sapiens, UniProt P08912)", "T1 construct": "expressed in transfected cells", "T1 sequence (P08912 whole entry)": "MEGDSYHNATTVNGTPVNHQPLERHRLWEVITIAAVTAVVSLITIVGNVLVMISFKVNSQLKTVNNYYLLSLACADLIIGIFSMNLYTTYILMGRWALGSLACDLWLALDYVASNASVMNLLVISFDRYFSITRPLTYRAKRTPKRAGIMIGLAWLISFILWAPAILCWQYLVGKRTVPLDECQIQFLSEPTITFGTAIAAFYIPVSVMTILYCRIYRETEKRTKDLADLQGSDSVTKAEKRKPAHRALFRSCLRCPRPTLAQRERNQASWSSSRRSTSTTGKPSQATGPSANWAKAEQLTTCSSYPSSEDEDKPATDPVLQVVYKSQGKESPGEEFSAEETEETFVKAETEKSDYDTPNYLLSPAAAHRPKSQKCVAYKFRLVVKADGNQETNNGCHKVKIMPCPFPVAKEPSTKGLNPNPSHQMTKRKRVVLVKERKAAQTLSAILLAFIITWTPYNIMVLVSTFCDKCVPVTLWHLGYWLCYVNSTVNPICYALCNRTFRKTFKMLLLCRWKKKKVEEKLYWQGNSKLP", "experiment": "PI hydrolysis in cells transfected with human M5", "type": "cell-based"}, "[1]": {"system": "Isolated Guinea Pig Right Atrium", "experiment": "Isolated guinea pig right atrium", "protocol": "• 1. Astemizole (human ether-a-go-go related gene (HERG) Channel) Binding Assay. […] Isolated Guinea Pig Right Atrium (atrial fibrillation). […] Effects of AF292 (dose 5 mg/kg orally) on cardiac electrophysiological, cardio-haemodynamic in instrumented, awake dogs. Healthy trained and chronically instrumented female Beagle dogs of varying age and ranging in body weight from 9.4 to 12 kg, were used for recording of the cardiovascular parameters: heart rate, diastolic and systolic blood pressure, pressure rate product, LV dp/dt max, LV dp/dt max/pd, LV dp/dt min, cardiac output, stroke volume, systemic vascular resistance and the ECG parameters (PQ-, QRS-, QT-, QTcBazett-(QTcB), QTcFridericia-(QTcF) and QTcVan de Water-(QTcVdW) interval duration and QT-dispersion. During the last 18 hours prior to the experiments, the dogs had no access to food. Water was available ad libitum. At the beginning of each experiment, control values of the various parameters were recorded for at least 30 min. Thereafter, 5 mg/kg of AF292 (n=4) or the corresponding volume of the solvent (n=4) was administered orally by gavage. The various haemodynamic parameters were recorded continuously for 4 hours thereafter."}, "CYP2C9": {"target": "CYP2C9 (Homo sapiens, UniProt P11712)", "sequence (P11712 whole entry)": "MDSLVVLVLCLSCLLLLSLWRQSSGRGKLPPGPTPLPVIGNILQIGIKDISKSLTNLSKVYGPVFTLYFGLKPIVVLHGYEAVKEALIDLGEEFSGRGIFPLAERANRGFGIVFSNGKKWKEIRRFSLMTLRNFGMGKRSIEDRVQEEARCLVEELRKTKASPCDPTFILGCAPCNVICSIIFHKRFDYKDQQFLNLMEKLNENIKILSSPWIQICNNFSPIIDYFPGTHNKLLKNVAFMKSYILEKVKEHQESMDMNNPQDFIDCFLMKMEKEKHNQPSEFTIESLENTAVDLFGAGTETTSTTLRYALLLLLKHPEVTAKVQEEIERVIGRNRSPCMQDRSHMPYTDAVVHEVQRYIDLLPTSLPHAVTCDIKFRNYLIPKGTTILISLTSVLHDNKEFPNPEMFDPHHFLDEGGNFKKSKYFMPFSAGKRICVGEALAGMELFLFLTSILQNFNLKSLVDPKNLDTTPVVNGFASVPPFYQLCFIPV", "experiment": "Cytochrome P450 inhibition, CYP2C9", "type": "in vitro ADME", "conditions": "up to 10 μM", "protocol": "(§1) Cytochrome P450 activity can be an indicator for potential drug-drug interactions. AF292 was evaluated in a microtiter plate assay for P450 inhibition."}, "CYP2C19": {"target": "CYP2C19 (Homo sapiens, UniProt P33261)", "sequence (P33261 whole entry)": "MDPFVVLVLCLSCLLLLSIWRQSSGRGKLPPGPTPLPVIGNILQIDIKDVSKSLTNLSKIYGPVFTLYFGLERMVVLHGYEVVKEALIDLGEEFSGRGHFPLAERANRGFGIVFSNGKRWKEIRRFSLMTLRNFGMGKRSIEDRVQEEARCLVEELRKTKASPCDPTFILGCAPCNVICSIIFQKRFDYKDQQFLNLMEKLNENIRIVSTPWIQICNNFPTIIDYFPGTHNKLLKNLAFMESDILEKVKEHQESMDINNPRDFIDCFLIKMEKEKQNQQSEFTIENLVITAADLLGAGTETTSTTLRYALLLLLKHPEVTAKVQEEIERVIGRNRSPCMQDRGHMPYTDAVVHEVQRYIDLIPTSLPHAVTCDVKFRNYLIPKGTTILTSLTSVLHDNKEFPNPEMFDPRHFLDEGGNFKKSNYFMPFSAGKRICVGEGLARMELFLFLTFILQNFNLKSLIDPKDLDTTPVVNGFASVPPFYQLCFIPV", "experiment": "Cytochrome P450 inhibition, CYP2C19", "type": "in vitro ADME", "conditions": "up to 10 μM", "protocol": "as §1"}, "Caco-2 cell permeability": {"experiment": "Caco-2 cell permeability", "type": "in vitro ADME, human", "conditions": "human, Caco-2; bi-directional assay; read-out: average permeability coefficient (Papp)", "protocol": "(§2) This test is used to determine intestinal permeability of tested compounds. Caco-2 cells, when grown on semipermeable filters, spontaneously differentiate in culture to form confluent monolayers which both structurally and functionally resemble the small intestinal epithelium. Because of this property they are useful as an in vitro model for the study of drug absorption and metabolism during absorption in the intestinal mucosa. Caco-2 monolayers were grown to confluence on collagen-coated, microporous, polycarbonate membranes in 12 well plates and permeability of the test material was determined."}, "Caco-2 monolayers": {"system": "Caco-2 monolayers", "experiment": "Caco-2 cell permeability", "type": "in vitro ADME, human", "protocol": "as §2"}, "Aging microcebes": {"system": "Aging microcebes", "experiment": "Effects in aging microcebes", "type": "in vivo", "conditions": "chronic treatment for 18 months", "text": "Aging microcebes show similar cognitive deficits and cerebral lesions to those observed in aging humans and in AD patients. Thus this is a good animal model for AD, mimicing the three major hallmarks in AD {plaques (Aβ), paired helical filaments (hyperphophorylated and aggregated τ) and cognitive dysfunction}. This model may also be used to mimic MCI conducive to AD"}, "ischemic rats": {"system": "ischemic rats", "experiment": "Working memory (MWM) in ischemic rats", "type": "in vivo, Sprague Dawley rats", "conditions": "0.5 mg/kg, po, chronic", "protocol": "Transient ischemia in rats was induced by a modification of the ischemia model (Voll et et al, Stroke, 20: 1700–1706, 1989). This was done by a bilateral carotid artery occlusion in Sprague Dawley rats: (42 male, 3 months old, weighing 270–340 g) combined with reduction in blood pressure induced by sodium nitropruside. Ischemia was induced in 21 rats whereas the other 21 rats served as sham controls. Under pentobarbital anasthesia (30 mg/kg, ip), sodium nitropruside 4.8 mg/kg/hr) was infused through a cannula implanted in the tail vein, for a period of 25 min. Five min after the initiation of the infusion, at the time when mean blood pressure was maintained at 30–60 mmHg (intial levels ˜110 mm Hg) both carotid arteries were clamped for 20 min. Immediately afterwards 1.8 mEq sodium bicarbonate solution was administerd ip in order to minimize systemic acidosis. The sham operated rats were anesthetized as the ischemic rats and were infused with saline. […] In rats subjected to ischemia, a mortality of about 30% was recorded within 24 hr after surgery. […]\nThe ratio of escape latency (REL) and the ratio of path length (RPL) were calculated by the ratio of block no 2/block no 1 for each parameter. […] REL and RPL were analyzed by a 3-way ANOVA (2×2×3), with one repeated variable (weeks) and two non-repeated variables (Operation-ischemia/sham-operated and Treatment AF150(S)/DDW)."}, "[2]": {"system": "Primary mixed rat cortical neurons infected with recombinant Semliki Forest virus encoding human APP695 or APP C99 or C111", "experiment": "Aβ levels in vitro in infected cortical neurons", "type": "cell-based", "protocol": "The mechanism of Aβ modulation was tested using C99 (and C111) that are truncated constructs generated from APP. Unlike APP, C99/C111 are direct substrates for γ-secretase. With both constructs it is possible to directly assay for γ-secretase activity, while with APP this is not possible. Both constructs are—as compared to APP—inefficient substrates for α-secretase. Synergistc effects were also evaluated with CDX (methyl-β-cyclodextrin), an agent which extracts cholesterol from the plasma membrane. CDX inhibits also Aβ production. CDX-treated cells were treated in addition to the respective muscarinic agonist for 5 min to reduce the cholesterol content."}, "[3]": {"system": "Opiods/Opiate, Non-Selective", "experiment": "Opiate non-selective binding", "conditions": "at 10^−4 M"}, "GSK-3β": {"system": "GSK-3β", "experiment": "GSK-3β activity in rat hippocampal neurons", "type": "cell-based", "protocol": "This study was performed in rat hippocampal primary cell cultures using the methods described by Garrido J L et al. (FASEB J 2002; 16:1982)."}, "[4]": {"experiment": "Chronic oral toxicity up to 13 weeks, dog"}}, "note": "“Also recorded” adds a separate entry of the source."}
{"smiles": "CC[C@@H]1SC2(CCNCC2)NC1=O", "note": "[AF292, (S)-2-Ethyl-1-thia-4,8-diaza-spiro[4.5]decan-3-one]", "values": [{"measurement": "PI turnover, M5, agonist activity", "setting": "M5 receptor", "value": "No activity; also recorded: PI, AA: M5 mAChR - no effect as agonist"}, {"measurement": "Contractile force", "setting": "[1]", "value": "no significant effect on contractile force"}, {"measurement": "Contractile rate", "setting": "[1]", "value": "tended to slightly reduce the contractile rate"}, {"measurement": "Inhibition of CYP2C9", "setting": "CYP2C9", "value": "did not induce significant inhibition"}, {"measurement": "Inhibition of CYP2C19", "setting": "CYP2C19", "value": "did not induce significant inhibition"}, {"measurement": "Papp", "setting": "Caco-2 cell permeability", "value": 17.4, "unit": "×10⁻⁶ cm/s"}, {"measurement": "Absorption potential ranking", "setting": "Caco-2 monolayers", "value": "high absorption potential"}]}
{"smiles": "CC1=NCC2(CCN(C)CC2)S1", "note": "[AF150(S), 2,8-Dimethyl-1-thia-3,8-diaza-spiro[4.5]dec-2-ene]", "values": [{"measurement": "Astrogliosis and inflammation", "setting": "Aging microcebes", "value": "decreased astrogliosis and inflammation"}, {"measurement": "Cognitive and behavioral impairments", "setting": "Aging microcebes", "value": "improved the cognitive and behavioral impairments"}, {"measurement": "Hyperphosphorylated τ, aggregated τ neurons, paired helical filaments", "setting": "Aging microcebes", "value": "decreased hyperphosphorylated τ proteins"}, {"measurement": "Working memory performance (REL and RPL)", "setting": "ischemic rats", "value": "significantly improved working memory performance"}]}
{"smiles": "CC[C@@H]1SC2(CCN(C)CC2)NC1=O", "note": "[AF267B, (S)-2-ethyl-8-methyl-1-thia-4,8-diaza-spiro[4.5]decan-3-one]", "values": [{"measurement": "Active concentration range, decrease of Aβ", "setting": "[2]", "value": "active in the μM range"}, {"measurement": "Potency in decreasing Aβ levels relative to AF150(S)", "setting": "[2]", "value": "at least 5 fold"}, {"measurement": "Reduction of release of Aβ-like fragments (3–4 Kda)", "setting": "[2]", "value": "approximately 50%"}, {"measurement": "γ secretase activity reduction", "setting": "[2]", "value": 50, "unit": "%"}, {"measurement": "p3 fragment", "setting": "[2]; 1 mM", "value": "complete loss"}, {"measurement": "Decrease of Aβ together with CDX", "setting": "[2]; with CDX (5 mM), to undetectable Aβ levels", "value": "synergistic effect"}, {"measurement": "% inhibition", "setting": "[3]", "value": 52.5, "unit": "%"}, {"measurement": "GSK-3β activity vs. control in presence of Aβ fibrils", "setting": "GSK-3β; 10 μM, Aβ fibrils (10 μM) alone 370%", "value": 150, "unit": "%"}, {"measurement": "Decrease of GSK-3β activity", "setting": "GSK-3β; 100 μm", "value": 60, "unit": "%"}, {"measurement": "NOAEL", "setting": "[4]; beagle, dog, in vivo, po", "value": "6 to 9", "unit": "mg/kg/day"}, {"measurement": "Dose at which effects are seen", "setting": "[4]; dog", "value": "> 9", "unit": "mg/kg"}, {"measurement": "ECG changes", "setting": "[4]; up to 13 weeks oral", "value": "no changes in the ECG"}]}
